{
  "source": "patent US20210023024A1",
  "about": "“COMPOSITION FOR TREATMENT OF CHRONIC WOUNDS” (priority 2018, published 2021)",
  "system": "diabetic foot ulcer",
  "experiment": "Clinical use of triclosan cream on diabetic foot ulcers (patients 1 and 2)",
  "format": "in vivo, human",
  "text": "A triclosan cream formulation, according to an embodiment of the invention (Example 5), was applied to a number of patients, with differently presented conditions and symptoms. as described below:\ndiabetic. Neuro ischaemic. Heart rate: pulse mono and biphasic depending on the weather. Indication of reduced arterial blood flow due to a blockage or low elasticity. Ex-smoker. Stage 3 Non healing dorsal diabetic foot ulcer.\nThe patient had 2 ulcers: • 1) one on the dorsal IPJ on the 2nd toe, size of 5 pence, 1 cm sq and • 2) one on apex of 1st toe, size of 5p, 1 cm sq.\nThe patient was treated twice a week. The ulcer was filled with the cream to the brim, so the cream was level with skin surface. […] Triclosan cream was applied for 8 weeks. The cream was packed into the wound and a non-adhesive foam dressing was applied. The patient then wore rocker bottom soles to reduce the weight and pressure. Treatment for this toe ulcer started on Mar. 11, 2017 and healed on 20/1/18. No other medication was used.\nThe patient had 1 ulcer on sole of foot, approximately the size of 50 pence.\nWhile the patient was receiving chemotherapy, the triclosan cream was applied for 8 weeks. The triclosan cream was applied every alternate day, with a sharp debridement and cleansed with sterile saline solution prior to application of the cream. In the last two weeks of treatment the cream was applied daily. […]",
  "data": [
    {"smiles": "Cc1onc(-c2c(F)cccc2Cl)c1C(=O)N[C@@H]1C(=O)N2[C@@H]1SC(C)(C)[C@@H]2C(=O)O", "note": "[Flucloxacilin]", "values": [
      {"measurement": "outcome of previous treatment", "setting": "Patient 1, before triclosan cream, Flucloxacilin 6 months intermittently, 6 courses", "value": "could not clear the infection in the wound"},
      {"measurement": "outcome of previous treatment", "setting": "Patient 2, before triclosan cream", "value": "could not clear the infection in the wound"}
    ]}
  ]
}
